Assay results published in PubChem BioAssay (NCI).
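48-hour exposure; five concentrations; linearly interpolated endpoints. The concentration for 50% growth inhibition is given as GI50. TGI: concentration producing complete growth inhibition.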

Key:
Test in all cases: NCI tumour cell line growth inhibition, 48 h
DMS 114 small cell lung = tested on: DMS 114 small cell lung
DMS 273 small cell lung = tested on: DMS 273 small cell lung
KM20L2 colon = tested on: KM20L2 colon
SNB-78 CNS = tested on: SNB-78 CNS
RXF-631 renal = tested on: RXF-631 renal
XF 498 CNS = tested on: XF 498 CNS

OC12c3ccccc3C1CCCCCC21OCCCO1 (stereo unspecified)
TGI (DMS 114 small cell lung): > 100 µM
TGI (DMS 273 small cell lung): > 100 µM
TGI (KM20L2 colon): > 100 µM
TGI (SNB-78 CNS): > 100 µM

COc1cc2c(c(OC)c1OC)-c1ccc(SC)c(=O)cc1C(CC(=O)Oc1cccc(F)c1)C2 (stereo unspecified)
TGI (DMS 114 small cell lung): 1.07 µM
TGI (KM20L2 colon): 0.225 µM
TGI (RXF-631 renal): 20.7 µM
TGI (SNB-78 CNS): > 100 µM
TGI (XF 498 CNS): 36.8 µM

CCn1c(CSc2nc(-c3ccccc3)c(-c3ccccc3)[nH]2)n[nH]c1=S
TGI (DMS 114 small cell lung): > 100 µM
TGI (DMS 273 small cell lung): > 100 µM
TGI (KM20L2 colon): > 100 µM
TGI (SNB-78 CNS): > 100 µM
TGI (XF 498 CNS): > 100 µM

COc1cc(C2c3cc4c(cc3[C@@H](N(C)c3ccc(N(C)C)cc3)C3COC(=O)C23)OCO4)cc(OC)c1O (stereo partly specified)
TGI (DMS 114 small cell lung): 2.24 µM
TGI (DMS 273 small cell lung): 19.5 µM
TGI (RXF-631 renal): 40.7 µM

Cc1ccc(C2C(Cl)C(=O)N2NC(=O)c2ccc(N)cc2)cc1 (stereo unspecified)
TGI (DMS 114 small cell lung): 23.3 µM
TGI (DMS 273 small cell lung): 17.4 µM
TGI (KM20L2 colon): 48.2 µM
TGI (SNB-78 CNS): 46.2 µM
TGI (XF 498 CNS): 26.5 µM

CC[n+]1c(/C=C/c2ccc(N(CCCl)CCCl)cc2)ccc2cc(I)ccc21
TGI (DMS 114 small cell lung): > 100 µM
TGI (KM20L2 colon): 1.88 µM
TGI (SNB-78 CNS): 36 µM

OC12CCC3(O)c4ccccc4C3C1c1ccccc12 (stereo unspecified)
TGI (DMS 273 small cell lung): > 100 µM
TGI (KM20L2 colon): > 100 µM
TGI (SNB-78 CNS): > 100 µM
TGI (XF 498 CNS): > 100 µM

CN1NC(c2ccccc2)=C(C#N)C(=O)CC1c1ccc(Br)cc1 (stereo unspecified)
TGI (SNB-78 CNS): > 100 µM
TGI (XF 498 CNS): 78.2 µM

O=C(O)c1ccc(Nc2nc3nn(Cc4ccccc4)cc3c(=O)s2)cc1
TGI (DMS 114 small cell lung): > 100 µM
TGI (DMS 273 small cell lung): > 100 µM
TGI (KM20L2 colon): > 100 µM
TGI (SNB-78 CNS): > 100 µM

O/N=C\C(=Nc1ccc(Cc2ccc(N=C(/C=N\O)NO)cc2)cc1)NO
TGI (DMS 114 small cell lung): > 100 µM
TGI (DMS 273 small cell lung): > 100 µM
TGI (KM20L2 colon): > 100 µM
TGI (SNB-78 CNS): > 100 µM
TGI (XF 498 CNS): > 100 µM

O=C(c1ccco1)N(C(=S)N1CCN(c2ccccn2)CC1)c1ccccc1
TGI (DMS 114 small cell lung): > 100 µM
TGI (DMS 273 small cell lung): > 100 µM
TGI (KM20L2 colon): > 100 µM
TGI (SNB-78 CNS): > 100 µM
TGI (XF 498 CNS): > 100 µM

COC(=O)CC(C(C(C)=O)C(=O)OCc1ccccc1)N1C(=O)OC(c2ccccc2)C1c1ccccc1 (stereo unspecified)
TGI (DMS 114 small cell lung): > 100 µM
TGI (DMS 273 small cell lung): > 100 µM
GI50 (KM20L2 colon): > 100 µM
TGI (KM20L2 colon): > 100 µM
TGI (RXF-631 renal): > 100 µM
TGI (XF 498 CNS): > 100 µM

COc1ccc(/C(Cl)=C(\C=O)c2ccc(Cl)cc2)cc1OC
TGI (DMS 114 small cell lung): 59.5 µM
TGI (DMS 273 small cell lung): > 100 µM
TGI (KM20L2 colon): 31.9 µM
TGI (RXF-631 renal): > 100 µM
TGI (SNB-78 CNS): > 100 µM
